Here are results for one compound from paper PMC8894670, “An Integrative Multiomics Approach to Characterize Prebiotic Inulin Effects on Faecalibacterium prausnitzii” (Frontiers in Bioengineering and Biotechnology, 2022).

Test [1] deals with T1, amylosucrase (ams) (Faecalibacterium duncaniae, UniProt C7H8X5).
T1 construct: gene FAEPRAA2165_02769; full-length ORF amplified from genomic DNA, pET28a (BamHI/XhoI sites in primers, tag kept if any), E. coli BL21(DE3), soluble lysate; EC 2.4.1.4, GH13; primers encode N-term MAAKQE, C-term LVKNK
T1 sequence (C7H8X5 1-609): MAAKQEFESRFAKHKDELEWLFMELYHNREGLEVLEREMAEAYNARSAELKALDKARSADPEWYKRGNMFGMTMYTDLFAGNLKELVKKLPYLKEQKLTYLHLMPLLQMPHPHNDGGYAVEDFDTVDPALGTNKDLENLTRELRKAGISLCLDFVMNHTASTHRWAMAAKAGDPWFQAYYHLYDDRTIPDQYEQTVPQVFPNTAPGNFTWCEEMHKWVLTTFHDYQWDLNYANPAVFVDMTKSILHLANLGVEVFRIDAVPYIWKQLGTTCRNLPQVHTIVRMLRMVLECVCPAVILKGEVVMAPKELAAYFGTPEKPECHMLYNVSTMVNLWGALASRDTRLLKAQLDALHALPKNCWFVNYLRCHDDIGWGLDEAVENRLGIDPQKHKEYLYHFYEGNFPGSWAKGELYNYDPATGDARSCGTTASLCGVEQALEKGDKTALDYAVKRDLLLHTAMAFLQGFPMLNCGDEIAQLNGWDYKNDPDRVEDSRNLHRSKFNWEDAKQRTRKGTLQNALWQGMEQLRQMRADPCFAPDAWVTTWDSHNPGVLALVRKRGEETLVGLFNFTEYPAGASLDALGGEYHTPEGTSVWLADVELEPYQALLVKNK
Kind of test: MALDI-TOF-MS of products, lysate of overexpressing E. coli. The settings on record: 10 mg/ml sucrose, 50 mM sodium phosphate, 37°C, 10 min; 36 ng soluble lysate protein. The test is classed as biochemical.

Test [2] addresses T2, β-fructosidase (bfrA) (Faecalibacterium duncaniae, UniProt C7H8W7).
T2 construct: gene FAEPRAA2165_02761; full-length ORF amplified from genomic DNA, pET28a (BamHI/XhoI sites in primers, tag kept if any), E. coli BL21(DE3), soluble lysate; EC 3.2.1.26, GH32; primers encode N-term MNDLTL, C-term FELNL
T2 sequence (C7H8W7 1-491): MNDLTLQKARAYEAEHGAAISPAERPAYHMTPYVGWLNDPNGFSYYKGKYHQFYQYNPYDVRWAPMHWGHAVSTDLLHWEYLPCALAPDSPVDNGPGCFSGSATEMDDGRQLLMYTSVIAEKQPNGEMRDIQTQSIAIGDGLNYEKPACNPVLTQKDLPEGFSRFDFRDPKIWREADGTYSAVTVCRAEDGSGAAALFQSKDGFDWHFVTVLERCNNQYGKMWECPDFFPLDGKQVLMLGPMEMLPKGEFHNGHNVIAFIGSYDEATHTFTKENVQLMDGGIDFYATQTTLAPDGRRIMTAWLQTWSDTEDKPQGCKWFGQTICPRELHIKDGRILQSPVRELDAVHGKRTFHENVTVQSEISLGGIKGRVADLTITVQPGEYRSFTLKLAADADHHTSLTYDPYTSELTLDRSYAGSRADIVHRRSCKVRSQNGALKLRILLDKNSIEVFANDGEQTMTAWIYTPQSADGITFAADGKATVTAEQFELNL
Described as above. The test is classed as biochemical. The following applies: 10 mg/ml sucrose, 50 mM sodium phosphate, 37°C, 10 min; 36 ng soluble lysate protein.

Turning to `OC[C@H]1O[C@@](CO)(O[C@H]2O[C@H](CO)[C@@H](O)[C@H](O)[C@H]2O)[C@@H](O)[C@@H]1O` [sucrose], the “MALDI-TOF-MS of products, lysate of overexpressing E. coli” value in test [1] was “sucrose was degraded by the pET28a-ams and pET28a-bfrA recombinant strains”; in test [2], “sucrose was degraded by the pET28a-ams and pET28a-bfrA recombinant strains”.
